Results from US20090123447A1, “COMPOSITIONS AND METHODS TO INHIBIT RNA VIRAL REPRODUCTION” (priority 2007, published 2009).
Like-named read-outs stand apart in the source and are kept apart here.

Tests used:
[1] = tested on: subgenomic HCV replicon of genotype 1b; assay: microbe, parasite or virus in culture; format: cell-based, hepatitis C virus
Method: Huh7 human hepatoma cells were cultured in Dulbecco's modified Eagle medium (DMEM; Invitrogen, Carlsbad, Calif., USA) supplemented with 10% fetal bovine serum (FBS; Invitrogen), 100 units/ml of penicillin, and 100 μg/ml of streptomycin in a 5% CO2 incubator. SgPC2 cells are G418-selected, pooled Huh7 cell clones that support the continuous replication of a subgenomic HCV replicon of genotype 1b and [29] (GenBank Accession No. AJ242652) that carries a S11791 adaptive mutation within the NS5A region. SgPC2 cells were maintained in the above medium supplemented with 0.5 mg/ml G418 (Invitrogen). G418 was removed at least 1 day before cell treatments.

[2] = tested on: newly synthesized HCV RNA; assay: 3H labeling of newly synthesized HCV RNA in SgPC2 cells; format: cell-based, hepatitis C virus; conditions: 6 h
Method: One million SgPC2 cells were pretreated with 2 μM BAPTA-AM or DMSO alone for 1 h and then treated with 0 or 100 μM H2O2 in the presence of 100 μCi of [^3H]uridine (35-50 Ci/mmol; MP Biomedicals, Irvine, Calif., USA) and 4 μg/ml actinomycin D (Sigma-Aldrich) for 5 to 6 h and then lysed for the RNA isolation. RNA was analyzed on a 1% formaldehyde agarose gel, which was then treated with 1 M sodium salicylate for 20-30 min for fluorography. The RNA gel was also stained with ethidium bromide to visualize rRNA bands to serve as loading controls.

[3] = tested on: HCV replication complex (RC); assay: In vitro HCV replication assay with cytoplasmic lysates of SgPC2 cells; format: cell-based, hepatitis C virus; conditions: for effect on the suppression of in vitro HCV replication by H2O2: pretreatment of SgPC2 cells before H2O2
Method: In vitro replication assay was carried out according to the protocol of Ali et al., with slight modifications. Briefly, SgPC2 cells were grown to approximately 50-60% confluence in 100-mm dishes. Then, […], and cytoplasmic lysates were prepared by gently lysing the cells in the incomplete replication buffer (prepared without dithiothreitol) immediately after treating the cells with lysolecithin-containing washing solution (150 mM sucrose, 30 mM Hepes, pH 7.4, 33 mM ammonium chloride, 7 mM KCl, 4.5 mM magnesium acetate, 250 μg/ml lysolecithin) for 1-2 min. Twenty to 50 μCi of [α-^32P]CTP (3000 Ci/mmol) and 1-2 μg of actinomycin D were added to 70 μl of these cytoplasmic lysates, and the replication reaction was allowed to proceed for 1 h at 30° C. Then, RNA was isolated by phenol:chloroform extraction and ethanol precipitation. The ^32P-labeled transcripts were then analyzed on a 1% formaldehyde agarose gel which was subsequently washed with H2O, dried, and analyzed with a phosphoimager.

full-length NS5B = biological target: T1, full-length NS5B (Hepatitis C virus genotype 1b, UniProt P26663); assay: NS5B RdRp assay, de novo RNA synthesis in vitro; format: biochemical
T1 construct: Full-length NS5B protein was purified from Escherichia coli; made in house; host or cells: Escherichia coli
From the text: Full-length NS5B protein was purified from Escherichia coli, as previously described, and was used to catalyze de novo RNA synthesis in vitro [36].

JFH1 HCV (genotype 2a) = format: cell-based, hepatitis C virus
Method: For viral RNA transfection, JFH1, JFH1/GND, and pSGR-JFH1-Luc were linearized with XbaI and used to synthesize the corresponding positive-sense stranded HCV RNA, as previously described (68). Then, 5×10^6 Huh7 cells were rinsed with Opti-Mem (Invitrogen), mixed briefly with 10-20 μg of the in vitro transcribed RNA in 0.4 ml of Opti-Mem, and then electroporated at 260 volts and 950 μF. […] Medium was changed daily. For infection with HCV, medium collected from JFH1 RNA-transfected cells were cleared of cell debris, as described, and added to naïve Huh7 cells. Typically, 1:2 or 3:2 ratio of the virus-containing medium and fresh cell culture medium were used.
JFH1/GND was used as the negative control. When L-buthionine S,R-sulfoximine (BSO) was used, the cells were pretreated with BSO for 16-24 hrs prior to the initiation of treatments.
Intracellular JFH1 HCV RNA content was also analyzed by qRT-PCR (Taqman), using ABI7300 real time PCR system and one step RT-PCR kit from Applied Biosystems. The forward primer was 5′-[…]-3′ (nt. 146 to 164) and the reverse primer, 5′-[…]-3′ (nt. 277 to 295). The probe was 5′[…]3′ (nt. 168 to 188) and was fluorogenically labeled with FAM (5′) and TAMRA (3′) (Biosearch Technologies, Novato, Calif.). Briefly, the reactions were carried out at 48° C. for 30 min for reverse transcription, followed by denaturation at 95° C. for 10 min, and then 50 cycles of 15 sec denaturation at 95° C. plus 60 sec of annealing and extension at 60° C. All samples were analyzed in duplicates or triplicates. In vitro RNA transcripts were used to generate standard curve to determine RNA copy numbers. The level of 18S rRNA was also analyzed, using manufacturer-optimized protocol, as the control.
To analyze the amount of the extracellular HCV RNA, medium from the cells were cleared by low-speed centrifugation and then, treated with RNaseA at room temperature. Then, the RNA samples were extracted, using Trizol LS Reagent (Invitrogen), and analyzed for HCV RNA content by qRT-PCR.

[4] = tested on: intracellular calcium concentration ([Ca^2+]i); assay: [Ca^2+]i measurement with Indo-1 AM in SgPC2 cells; format: cell-based, human; conditions: for change in [Ca^2+]i: SgPC2 cells
Method: Briefly, on the day of the experiment, cells were washed in Krebs-Ringer phosphate buffer (KRPH; pH 7.4, containing 1.0 mM MgSO4, 1.3 mM CaCl2, 10 mM Hepes, 5 mM glucose, 125 mM NaCl, 5 mM KCl, and 10 mM sodium phosphate) and subsequently loaded with 10-20 μM Indo-1 AM (70 μl/coverslip; Molecular Probes, Inc., Eugene, Oreg., USA) containing 10 μM probenecid (Molecular Probes) for 30 min at 37° C. The attached cells were washed and bathed in KRPH/probenecid at 4° C. or room temperature until further analysis. Then, coverslips were individually submerged into KRPH and preequilibrated inside the […] fluorimeter (Hitachi) in darkness for 3 min, and [Ca^2+]i was monitored continuously at 37° C., with excitation at […] and emission at 400 and 450 nm. H2O2 and other agents were injected at different time points, as indicated under Results. [Ca^2+]i was calculated as described. Rmax was determined by adding 8-16 μM digitonin and Rmin with 10 mM ethylene glycol-bis(β-aminoethyl)-N,N,N'-tetraacetic acid (EGTA). […] The baseline, which represented unstimulated cells scanned over time, was plotted along with other measurements or subtracted from the other plots. Cells were serum-depleted, 1 day before the experiment, by incubating them overnight in DMEM plus 0.5% FBS. […] Then, CaCl2 was added before determining the Rmax for each run.

SgPC2 cells [5] = tested on: SgPC2 cells
Method: Intracellular GSH concentration was determined using a GSH recycling assay and expressed as nmol/mg protein. ATP level was measured using the Somatic Cell ATP assay kit from Sigma-Aldrich, as previously described. Protein level was determined with a bicinchoninic acid kit (Pierce Biotechnology, Inc., Rockford, Ill., USA).

SgPC2 cells [6] = conditions: JC-1 and annexin V-FITC staining
Method: Mitochondrial membrane potential was measured with JC1, using a Guava cytometer (Guava Technologies, Inc.). Apoptosis was also monitored with annexin V-FITC, with a 96-Nexin kit from Guava Technologies, Inc.

genomic HCV RNA = conditions: Huh7 cells transfected with genomic HCV RNA, H2O2 24 h
Method: Then, 5×10^6 Huh7 cells were rinsed with DMEM, mixed briefly with 10-20 μg of the subgenomic replicon RNA in 0.4 ml of DMEM, and then electroporated at 220 V and 975 μF. Then, 1 million cells were seeded onto 60-mm cell culture dishes in DMEM containing 10% FBS. Medium was changed daily and, after 2-4 days, the cells were preincubated with 1,2-bis(2-aminophenoxy)ethane-N,N,N′,N′-tetraacetic acid tetrakis acetoxymethyl ester (BAPTA-AM) or vehicle control alone for 1 h. Then, the cells were exposed to H2O2 for 24 h, and the amount of the HCV RNA was analyzed by Northern blot (see below).
Total RNA was extracted from cells, using Trizol reagent (Invitrogen), following the manufacturer's protocol. Five to 20 μg of RNA was then subjected to Northern blot analysis using a ^32P-labeled double-stranded DNA probe prepared from nt 3669 to nt 6016 of the subgenomic replicon. For these and all other experiments, RNA and protein bands were quantified with a phosphoimager (Cyclone; Perkin-Elmer) or by densitometry using SigmaScan (Jandel Scientific) or IS2000R (Kodak). The intensities of the bands of interest were normalized against the control glyceraldehyde-3-phosphate dehydrogenase (GAPDH) mRNA.

T1 sequence (P26663 2420-3010): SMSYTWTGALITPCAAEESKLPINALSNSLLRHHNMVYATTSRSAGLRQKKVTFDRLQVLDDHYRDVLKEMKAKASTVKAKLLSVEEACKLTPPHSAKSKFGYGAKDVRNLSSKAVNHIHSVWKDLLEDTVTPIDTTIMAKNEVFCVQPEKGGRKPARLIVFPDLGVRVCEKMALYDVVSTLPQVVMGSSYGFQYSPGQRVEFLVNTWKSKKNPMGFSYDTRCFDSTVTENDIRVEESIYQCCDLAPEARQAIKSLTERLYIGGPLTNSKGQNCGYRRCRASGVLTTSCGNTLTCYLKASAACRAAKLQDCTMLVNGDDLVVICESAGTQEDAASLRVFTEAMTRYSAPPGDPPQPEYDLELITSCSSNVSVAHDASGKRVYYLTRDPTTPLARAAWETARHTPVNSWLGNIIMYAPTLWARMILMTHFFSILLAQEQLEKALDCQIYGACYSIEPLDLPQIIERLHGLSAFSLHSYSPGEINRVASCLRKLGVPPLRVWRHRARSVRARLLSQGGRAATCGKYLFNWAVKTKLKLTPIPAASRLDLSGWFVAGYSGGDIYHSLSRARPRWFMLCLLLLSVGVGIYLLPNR

For `CC(=O)OCOC(=O)CN(CC(=O)OCOC(C)=O)c1ccccc1OCCOc1ccccc1N(CC(=O)OCOC(C)=O)CC(=O)OCOC(C)=O` [BAPTA-AM, 1,2-bis(2-aminophenoxy)ethane-N,N,N′-tetraacetic acid tetrakis acetoxymethyl ester], which “effect on the suppression of HCV RNA by GO” value ([1]; SgPC2 cells, GO 24 h, 130-200 U/ml catalase or 2 μM BAPTA-AM) is on record?
Its value is “alleviate the suppressive effect of GO”.

And the “effect on the suppression of HCV RNA replication by H2O2 ([3H]uridine)” value ([2]; 2 μM BAPTA-AM pretreatment)?
The value was “completely removed the suppression”.

And the “amount of HCV RNA synthesized ([3H]uridine, actinomycin D)” value [2]?
The value was “no significant effect”.

And the “effect on the suppression of in vitro HCV replication by H2O2” value [3]?
The value was “removed this suppression at both time points tested”.

Which “in vitro HCV RNA replication, agent added directly to the cytoplasmic lysates” value ([3]; added to untreated lysates before assay) does the source give for `[Ca+2].[Cl-].[Cl-]` [CaCl2] here?
The value was “could decrease”.

What about the “in vitro de novo RNA synthesis by NS5B” value (full-length NS5B; 0.1 and 1 μM) of the same compound?
The value was “only marginally suppressed”.

And the NS5B polymerase activity (full-length NS5B; higher concentrations)?
The NS5B polymerase activity was “enhanced the polymerase activity”.

Which “effect on HCV RNA level / replication” value [1] does the source give for `c1ccc2c(c1)[I+]c1ccccc1-2` [DPI, Diphenylene Iodonium, reference compound] here?
Its value is “significantly elevated”.

How did the “restoration of HCV RNA levels suppressed by BSO” value (JFH1 HCV (genotype 2a)) turn out when `N[C@@H](CCC(=O)N[C@@H](CS)C(=O)NCC(=O)O)C(=O)O` [GSH, glutathione, reference compound] was run?
Its value is “not able to restore HCV replication”.

How did the “HCV RNA (normalized to GAPDH mRNA), % of untreated control” value [1] turn out when `OO` [H2O2, Hydrogen peroxide] was run?
The value was 36.8±16.6%.

And the “effect on HCV RNA replication after 30 min of treatment” value [1]?
Its value is “significant suppression”.

What about the “suppression of HCV RNA level compared with IFN-γ” value [1] of the same compound?
The value was “as effective as 100 to 2500 U/ml IFN-γ”.

What about the IC50 ([1]; Hepatitis C virus, 24 h, read-out: IC50 of suppression of HCV RNA level) of the same compound?
Its IC50 is about 25 µM.

What about the “AUC of [Ca^2+]i elevation” value ([4]; 100 μM H2O2, with BAPTA (2 μM BAPTA-AM pretreatment)) of the same compound?
Its value is 128.4±82.3 Ca^2+/min.

What about the “AUC of [Ca^2+]i elevation” value ([4]; 100 μM H2O2, without BAPTA) of the same compound?
Its value is 935.9±58.9 Ca^2+/min.

What about the “TG-induced calcium elevation after H2O2 pretreatment, % of control” value ([4]; H2O2 pretreatment 13 min, no extracellular calcium) of the same compound?
Its value is 9.2±2.6%.

And the “change in [Ca^2+]i” value [4]?
The value was “gradual rise”.

What about the “AUC of peroxide-induced calcium elevation” value ([4]; with 1.3 mM extracellular calcium) of the same compound?
The value was 1278.5±109.5 Ca^2+/min.

What about the “AUC of peroxide-induced calcium elevation” value ([4]; without extracellular calcium) of the same compound?
Its value is 1105.1±238.1 Ca^2+/min.

And the “amount of HCV RNA synthesized ([3H]uridine, actinomycin D)” value [2]?
Its value is “significantly decreased”.

And the “total ATP content, % of untreated control” value (SgPC2 cells [5]; 30 min of treatment)?
The value was 125.4±0.3%.

And the “total ATP content, % of untreated control” value (SgPC2 cells [5]; 24 h of treatment)?
The value was 97.3±8.25%.

What about the “mitochondrial membrane potential or apoptosis” value (SgPC2 cells [6]) of the same compound?
The value was “no significant effect”.

And the “intracellular and extracellular HCV RNA levels” value (JFH1 HCV (genotype 2a))?
The value was “significantly decreased”.

And the “genomic HCV RNA, % of untreated control” value (genomic HCV RNA)?
Its value is 34.0±4.0%.

And the “inositol 1,3-triphosphate (IP3) level” value (IP3)?
Its value is “did not increase”.

For `C/C=C(/C)C(=O)O[C@H]1C(C)=C2[C@H]([C@@H]1OC(=O)CCCCCCC)[C@@](C)(OC(C)=O)C[C@H](OC(=O)CCC)[C@@]1(O)[C@H]2OC(=O)[C@@]1(C)O` [TG, thapsigargin, reference compound], which activity at 0.4 µM ([4]; Homo sapiens, 400 nM TG pretreatment 10 min, no extracellular calcium, read-out: peroxide-induced calcium elevation after TG pretreatment, % of control) is on record?
Its activity at 0.4 µM is 58.3 ± 8.4%.

And the “change in [Ca^2+]i” value [4]?
Its value is “transient rise”.

And the “AUC of TG-induced calcium response in control cells” value ([4]; no extracellular calcium, no H2O2 pretreatment)?
The value was 772.3±189.3 Ca^2+/min.

How did the “effect on the suppression of in vitro HCV replication by H2O2” value [3] turn out when `C[C@H](CCC(=O)O)C[C@H](C)C[C@H](C)C(=O)/C=C(\O)[C@H](C)C[C@H](C)C/C=C/[C@@H](C)[C@@H](O)[C@@H](C)[C@@H](O)C[C@@H]1CC[C@@](C)([C@H]2CC[C@@](C)([C@@H](C)O)O2)O1` [ionomycin] was run?
Its value is “significantly alleviated”.

Which “basal calcium or magnitude/kinetics of the peroxide-induced calcium elevation” value [4] does the source give for `N.N.N.N.N.N.N.N.N.N.N.N.N.N.[Cl-].[Cl-].[Cl-].[Cl-].[Cl-].[Cl-].[O-2].[O-2].[Ru+3].[Ru+3].[Ru+4]` [ruthenium red, reference compound] here?
The value was “no effect”.

For cyclosporin A [reference compound], which “basal calcium or magnitude/kinetics of the peroxide-induced calcium elevation” value [4] is on record?
The value was “no effect”.
